Target: T1, Nudt13 (Mus musculus, UniProt Q8JZU0)
T1 construct: baculovirus, High Five insect cells
T1 sequence (Q8JZU0 1-352): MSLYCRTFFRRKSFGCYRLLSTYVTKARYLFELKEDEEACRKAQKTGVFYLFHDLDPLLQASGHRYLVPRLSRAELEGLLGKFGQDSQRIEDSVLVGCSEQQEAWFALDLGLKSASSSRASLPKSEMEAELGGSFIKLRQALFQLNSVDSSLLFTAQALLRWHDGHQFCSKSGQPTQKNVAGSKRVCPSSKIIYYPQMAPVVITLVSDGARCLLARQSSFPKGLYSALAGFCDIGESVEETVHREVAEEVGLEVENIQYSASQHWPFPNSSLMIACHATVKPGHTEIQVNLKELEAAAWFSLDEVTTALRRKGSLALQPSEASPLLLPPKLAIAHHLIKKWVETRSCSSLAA
Test: HPLC product analysis, non-linear regression, Michaelis-Menten
Format: biochemical
Conditions: 2 mM Mn2+, 50 mM Tris-HCl pH 8.0, 1 mM dithiothreitol, 37 °C; hydrolysis to NMNH and AMP
Experimental: HPLC product analysis, non-linear regression, Michaelis-Menten on Nudt13 | K m and k cat values were determined for NADH under optimal assay conditions

## NC(=O)C1=CN([C@@H]2O[C@H](COP(=O)(O)OP(=O)(O)OC[C@H]3O[C@@H](n4cnc5c(N)ncnc54)[C@H](O)[C@@H]3O)[C@@H](O)[C@H]2O)C=CC1 [NADH]
  Km: 340 µM

— article PMC5626787, “Mouse Nudt13 is a Mitochondrial Nudix Hydrolase with NAD(P)H Pyrophosphohydrolase Activity” (The Protein Journal, 2017)
